The record followed here is ChEMBL document CHEMBL1135328, “Structure-activity relationship of biaryl acylsulfonamide analogues on the human EP(3) prostanoid receptor” (Bioorg Med Chem Lett, 2002).

Test [1] concerns the target T1, Prostaglandin E2 receptor EP3 subtype (Homo sapiens, UniProt P43115).
T1 sequence (P43115 whole entry): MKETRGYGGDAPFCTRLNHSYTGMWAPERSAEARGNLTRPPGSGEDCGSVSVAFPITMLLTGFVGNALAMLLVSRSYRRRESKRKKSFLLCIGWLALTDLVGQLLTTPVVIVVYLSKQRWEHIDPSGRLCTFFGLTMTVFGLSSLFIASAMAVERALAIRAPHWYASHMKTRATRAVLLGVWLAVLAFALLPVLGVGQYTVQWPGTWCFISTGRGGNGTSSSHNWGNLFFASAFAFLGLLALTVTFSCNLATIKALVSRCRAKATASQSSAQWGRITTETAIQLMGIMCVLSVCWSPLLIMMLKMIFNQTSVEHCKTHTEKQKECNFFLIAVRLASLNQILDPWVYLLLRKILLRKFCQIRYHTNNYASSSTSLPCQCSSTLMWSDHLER
The test can be described thus: Binding affinity at human Prostanoid EP3 receptor.

The target in test [2] is Prostaglandin E2 receptor EP4 subtype (Homo sapiens, UniProt P35408). In words: Binding affinity at human Prostanoid EP4 receptor.
The target in test [3] is T2, Prostaglandin E2 receptor EP1 subtype (Homo sapiens, UniProt P34995).
T2 sequence (P34995 whole entry): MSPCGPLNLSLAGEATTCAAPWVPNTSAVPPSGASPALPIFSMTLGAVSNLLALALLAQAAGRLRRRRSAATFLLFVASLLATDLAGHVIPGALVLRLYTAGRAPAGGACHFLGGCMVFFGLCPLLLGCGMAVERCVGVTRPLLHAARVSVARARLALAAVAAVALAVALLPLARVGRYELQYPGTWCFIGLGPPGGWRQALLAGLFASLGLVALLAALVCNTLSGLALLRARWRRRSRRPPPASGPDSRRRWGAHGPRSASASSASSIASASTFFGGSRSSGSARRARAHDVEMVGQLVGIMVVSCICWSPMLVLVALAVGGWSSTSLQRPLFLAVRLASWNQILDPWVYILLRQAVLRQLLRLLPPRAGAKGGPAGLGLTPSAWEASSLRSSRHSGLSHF
In words: Binding affinity at human Prostanoid EP1 receptor.

Test [4] concerns the target Prostaglandin E2 receptor EP2 subtype (Homo sapiens, UniProt P43116). In words: Binding affinity at human Prostanoid EP2 receptor.
Test [5] has as its target T3, Prostaglandin D2 receptor (Homo sapiens, UniProt Q13258).
T3 sequence (Q13258 whole entry): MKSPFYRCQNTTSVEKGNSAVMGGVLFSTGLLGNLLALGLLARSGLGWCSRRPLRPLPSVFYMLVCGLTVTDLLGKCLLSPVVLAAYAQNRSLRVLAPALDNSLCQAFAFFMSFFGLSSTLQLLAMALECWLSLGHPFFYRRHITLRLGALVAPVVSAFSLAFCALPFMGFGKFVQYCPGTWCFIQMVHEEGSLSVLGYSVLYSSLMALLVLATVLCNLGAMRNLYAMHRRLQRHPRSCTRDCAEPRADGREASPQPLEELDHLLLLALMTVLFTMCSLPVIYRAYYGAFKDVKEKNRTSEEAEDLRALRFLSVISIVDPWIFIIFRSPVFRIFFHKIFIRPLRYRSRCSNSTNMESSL
In words: Inhibitory constant against Prostanoid DP receptor.

Test [6] addresses Prostacyclin receptor (Homo sapiens, UniProt P43119). The test can be described thus: Inhibitory constant against Prostanoid IP receptor.
Test [7] concerns the target Prostaglandin F2-alpha receptor (Homo sapiens, UniProt P43088). The test can be described thus: Inhibitory constant against Prostanoid FP receptor.

Chain of Prostaglandin E2 receptor EP2 subtype (P43116 whole entry): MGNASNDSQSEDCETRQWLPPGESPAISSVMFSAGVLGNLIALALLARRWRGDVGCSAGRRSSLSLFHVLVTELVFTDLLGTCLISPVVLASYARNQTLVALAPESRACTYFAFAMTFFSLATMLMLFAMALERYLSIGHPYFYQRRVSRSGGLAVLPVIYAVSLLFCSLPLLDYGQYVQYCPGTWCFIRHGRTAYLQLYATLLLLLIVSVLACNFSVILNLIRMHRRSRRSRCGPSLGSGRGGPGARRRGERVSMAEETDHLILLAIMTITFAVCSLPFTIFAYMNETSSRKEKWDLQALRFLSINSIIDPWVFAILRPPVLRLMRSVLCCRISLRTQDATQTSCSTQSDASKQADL
Chain of Prostaglandin E2 receptor EP4 subtype (P35408 whole entry): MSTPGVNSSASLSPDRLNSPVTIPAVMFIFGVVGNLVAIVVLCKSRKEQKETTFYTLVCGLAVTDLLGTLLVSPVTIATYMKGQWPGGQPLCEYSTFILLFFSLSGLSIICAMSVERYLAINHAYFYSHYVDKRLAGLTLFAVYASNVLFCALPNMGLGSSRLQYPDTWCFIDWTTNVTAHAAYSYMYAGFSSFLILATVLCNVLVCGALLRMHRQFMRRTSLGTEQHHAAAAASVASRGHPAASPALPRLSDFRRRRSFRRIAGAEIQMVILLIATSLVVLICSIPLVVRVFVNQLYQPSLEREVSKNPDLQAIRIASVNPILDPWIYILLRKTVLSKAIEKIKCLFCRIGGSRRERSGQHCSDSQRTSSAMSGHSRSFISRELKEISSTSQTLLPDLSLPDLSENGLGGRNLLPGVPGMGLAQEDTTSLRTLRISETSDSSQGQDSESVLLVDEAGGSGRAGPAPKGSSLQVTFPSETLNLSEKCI
Chain of Prostacyclin receptor (P43119 whole entry): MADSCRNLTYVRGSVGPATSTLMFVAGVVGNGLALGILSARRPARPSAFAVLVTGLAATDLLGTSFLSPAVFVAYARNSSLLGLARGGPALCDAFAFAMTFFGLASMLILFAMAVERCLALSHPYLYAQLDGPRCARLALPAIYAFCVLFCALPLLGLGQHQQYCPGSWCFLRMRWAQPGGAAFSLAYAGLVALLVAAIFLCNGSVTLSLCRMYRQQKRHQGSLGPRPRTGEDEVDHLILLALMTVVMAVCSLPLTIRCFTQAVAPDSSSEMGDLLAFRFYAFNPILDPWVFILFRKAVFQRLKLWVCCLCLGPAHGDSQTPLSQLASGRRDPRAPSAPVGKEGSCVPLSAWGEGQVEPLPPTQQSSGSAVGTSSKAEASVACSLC
Chain of Prostaglandin F2-alpha receptor (P43088 whole entry): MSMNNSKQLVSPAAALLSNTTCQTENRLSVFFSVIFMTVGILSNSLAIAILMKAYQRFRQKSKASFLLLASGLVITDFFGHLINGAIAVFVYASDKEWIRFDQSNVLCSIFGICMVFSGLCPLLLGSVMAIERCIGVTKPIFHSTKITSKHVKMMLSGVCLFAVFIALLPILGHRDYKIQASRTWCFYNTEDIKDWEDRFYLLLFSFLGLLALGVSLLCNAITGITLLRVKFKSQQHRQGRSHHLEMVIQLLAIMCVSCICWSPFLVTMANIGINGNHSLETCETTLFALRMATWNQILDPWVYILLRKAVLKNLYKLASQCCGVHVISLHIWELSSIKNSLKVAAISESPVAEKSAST

As usually defined, the Ki is the equilibrium dissociation constant of an inhibitor or competing ligand from its target. Read a low Ki as higher affinity. For the compound `c1ccc(CCSCc2ccc(-c3ccccc3CCc3nnn[nH]3)cc2)cc1`, the Ki in test [1] amounted to 1000 nM; in test [2], 2600 nM; in test [3] it was 4900 nM; in test [4], 63 nM.

As for `O=S(=O)(CCc1ccccc1-c1ccc(CSCCc2ccccc2)cc1)NS(=O)(=O)c1cccs1`, the inhibition constant Ki is 610 nM in test [1], 1100 nM in test [2], 7500 nM in test [3] and 3000 nM in test [4].

As for `O=C(NS(=O)(=O)CCc1ccccc1-c1ccc(CSCCc2ccccc2)cc1)c1cccs1`, the Ki in test [1] worked out at 480 nM; in test [2] it was 690 nM; in test [3] it was 2800 nM; in test [4], 2500 nM.

Regarding `Cc1cccc(OCCCOc2ccc(-c3ccccc3CC(C)C(=O)NS(=O)(=O)c3cccs3)cc2)c1` (configuration not stated), the inhibitory constant (Ki) in test [1] stood at 340 nM; in test [2] it was 1100 nM; in test [3], 5800 nM; in test [4], 2900 nM.

With `O=C(/C=C/c1ccccc1-c1cccc(/C=C/c2ccc3ccc(Cl)cc3n2)c1)NS(=O)(=O)c1cccs1`, the Ki amounted to 110 nM in test [1], 28000 nM in test [2], 41000 nM in test [3] and 70000 nM in test [4].

On to `CCCCc1nn(-c2ccccc2C(F)(F)F)c(=O)n1Cc1ccc(-c2ccccc2S(=O)(=O)NC(=O)c2cccs2)cc1`, for which the Ki in test [1] was 7000 nM; in test [2], 46 nM; in test [3], above 10000 nM; in test [4], above 10000 nM.

As to `CSc1cccc(-c2ccccc2CCC(=O)NS(=O)(=O)c2cccs2)c1`, the Ki in test [1] worked out at 240 nM; in test [2], 25000 nM; in test [3] it was 27000 nM; in test [4] it was 31000 nM.

As to `O=C(CCc1ccccc1-c1ccccc1CSCCc1ccccc1)NS(=O)(=O)c1cccs1`, the inhibition constant (Ki) in test [1] amounted to 510 nM; in test [2] it was 1500 nM; in test [3], 83 nM; in test [4], 3800 nM.

With `O=C(CCCc1ccccc1-c1ccc(CSCCc2ccccc2)cc1)NS(=O)(=O)c1cccs1`, the inhibitory constant (Ki) was 200 nM in test [1], 700 nM in test [2], 3000 nM in test [3] and 1800 nM in test [4].

Consider `O=C(CCc1ccccc1-c1cccc(/C=C/c2ccc3ccc(Cl)cc3n2)c1)NS(=O)(=O)c1cccs1`, for which the Ki in test [1] was found to be 120 nM; in test [2] it was 19000 nM; in test [3], 49000 nM; in test [4] it was 16000 nM.

On to `O=C(CCc1ccccc1-c1ccc(CSCCc2ccccc2)cc1)NS(=O)(=O)c1cccs1`, for which the Ki in test [1] turned out to be 46 nM; in test [2], 1100 nM; in test [3], 1700 nM; in test [4], 2700 nM.

For `O=C(O)CCc1ccccc1-c1ccc(CSCCc2ccccc2)cc1`, the inhibition constant Ki was 740 nM in test [1], 4400 nM in test [2], 8600 nM in test [3] and 140 nM in test [4].

Take `CS(=O)(=O)c1cccc(-c2ccccc2CCC(=O)NS(=O)(=O)c2cccs2)c1`: the Ki in test [1] was 5900 nM; in test [2], above 100000 nM; in test [3] it was above 100000 nM; in test [4], above 100000 nM.

For the compound `O=C(Cc1ccccc1-c1ccc(CSCCc2ccccc2)cc1)NS(=O)(=O)c1cccs1`, the inhibition constant (Ki) in test [1] was determined as 330 nM; in test [2] it was 850 nM; in test [3], 3700 nM; in test [4], 590 nM.

As to `O=C(CCc1ccccc1-c1cccc(CSCCc2ccccc2)c1)NS(=O)(=O)c1cccs1`, the Ki in test [1] was found to be 27 nM; in test [2] it was 1000 nM; in test [3], 820 nM; in test [4] it was 2000 nM.

As for `Cc1cccc(OCCCOc2ccc(-c3ccccc3CCC(=O)NS(=O)(=O)c3cccs3)cc2)c1`, the Ki in test [1] was found to be 53 nM; in test [2], 1600 nM; in test [3] it was 4600 nM; in test [4], 2900 nM.

As for `O=C(CCc1ccccc1-c1ccc(OCCCOc2cccc(CSCCc3ccccc3)c2)cc1)NS(=O)(=O)c1cccs1`, the inhibition constant Ki is 16 nM in test [1], 7100 nM in test [2], 13000 nM in test [3] and 4900 nM in test [4].

Consider `O=C(/C=C/c1ccccc1-c1ccc(Cl)c(Cl)c1)NS(=O)(=O)c1cccs1`, for which the Ki in test [1] came out at 25 nM; in test [5], 830 nM; in test [2], 3700 nM; in test [6], 7300 nM; in test [7] it was 17000 nM; in test [3] it was 8200 nM. This compound registered a Ki in test [4] of 27000 nM.

As for `Cc1cccc(OCCCOc2ccc(-c3ccccc3CNC(=O)NS(=O)(=O)c3cccs3)cc2)c1`, the inhibition constant (Ki) in test [1] was 150 nM; in test [2], 2900 nM; in test [3], 15000 nM; in test [4], 8600 nM.

As to `Cc1cccc(OCCCOc2ccc(-c3ccccc3COC(=O)NS(=O)(=O)c3cccs3)cc2)c1`, the Ki was 120 nM in test [1], 730 nM in test [2], 2800 nM in test [3] and 2100 nM in test [4].

As to `Cc1cccc(OCCCOc2ccc(-c3ccccc3CC(C)(C)C(=O)NS(=O)(=O)c3cccs3)cc2)c1`, the Ki in test [1] is 440 nM; in test [2] it was 1000 nM; in test [3], 1800 nM; in test [4], 2900 nM.
